According to patent US20210161868A1, “ANTI-INFLAMMATORY THERAPY IN ARRHYTHMOGENIC CARDIOMYOPATHY (ACM)” (Beth Israel Deaconess Medical Center, Inc., priority 2018, published 2021):
Entries after “also recorded” stand apart in the source; their conditions may differ.

Key:
[1] = tested on: neonatal rat ventricular myocytes (NRVMs) expressing JUP^2157del2; settings: NRVMs expressing mutant plakoglobin, previous reports; cited from earlier work
ACM mice = assay: Arrhythmias in ACM mice treated with SB216763 (previous unpublished observations); format: in vivo
models of ACM = settings: multiple in vitro and in vivo models, human iPSC-cardiac myocytes; cited from earlier work

## Cn1cc(C2=C(c3ccc(Cl)cc3Cl)C(=O)NC2=O)c2ccccc21 [SB216763]
[1]
  in vitro ACM features (protein redistribution, apoptosis, cytokines): blocked; also recorded: normalized
ACM mice; ACM mice
  time to return of arrhythmias after cessation of treatment: ≤ 48 h
ACM mice; ACM mice under treatment
  time to cessation of arrhythmias: ≤ 24 h
Models of ACM
  full ACM disease phenotype: prevent and/or reverse
